pIC50: −log10 of the molar value. “And” between values parts separate entries of the source, which are not always exact repeats. Equal values may be shown once. Read-outs that look alike come from different tables or passages of the source.
Key:
eIF1A-RPS10 interaction = target: T1, eIF1A-RPS10 interaction (Homo sapiens, UniProt P46783+P47813); experiment: Split-Renilla luciferase eIF1A-RPS10 interaction screen, dose-response; format: biochemical; conditions: for pIC50: Appendix Table S1, read-out: IC50 from the split RL screen; for IC50: summary table, read-out: IC50 concentration (µM), IC50 screen
T1 construct: made in house; host or cells: E. coli BL21 (PRSFduet); unpurified lysate supernatant
Summary of the method: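 Split-Renilla luciferase complementation using bacterially expressed (BL21) eIF1A-ΔC-Renilla and RPS10-ΔN-Renilla in clarified lysates (TKE buffer); eIF1A C-terminus fused to N-RL. Compound interference with eIF1A-RPS10 interaction read as loss of reconstituted RL activity; split-RL halves alone served as controls.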

[1] = tested on: IRF7 5'UTR firefly luciferase reporter in HEK293T cells; conditions: for Reference vs IRF7 (Final data, Fig. 1E): 1/Result, relative to DMSO; for LONG (summary - All), normalized to DMSO / SHORT (summary - All), normalized to DMSO: individual replicates, outliers excluded, DMSO = 1; for SHORT (summary - All), normalized to DMSO / Short: Normalized to average DMSO: Short reporter; for average ( long vs short ratio): summary - All;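 as to all read-outs here: luciferase signal corrected by a co-transfected GFP reporter for transfection efficiency, read after overnight compound exposure, with Long and Short reporters differing in 5'UTR length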
eIF1A = target: T2, eIF1A (Homo sapiens, UniProt P47813); format: binding; conditions: for fluorescence ratio, eIF1A: background-corrected, relative to DMSO or lowest 1Ai concentration, replicate columns; for pIC50: eIF1A, from the titration data, read-out: IC50 (eIF1A titration block); for WT eIF1A IC50: fluorescence binding
T2 construct: His-bdSUMO (cleaved yes); made in house; host or cells: E. coli BL-21

NSP1 = NSP1 (Severe acute respiratory syndrome coronavirus 2, UniProt P0DTD1)
[2] = tested on: CUG/GUG vs AUG start codon luciferase reporters in HEK293T cells; experiment: Near-cognate AUG starting codon fidelity reporter assay (GUG, CUG vs AUG); format: cell-based; conditions: for CUG vs AUG (%): CUG start codon reporter relative to AUG reporter (AUG = 100); for CUG vs AUG (%) / GUG vs AUG (%): single-experiment calculation; for GUG vs AUG (%): GUG start codon reporter relative to AUG reporter (AUG = 100); for average CUG and GUG / average CUG and GUG relative to DMSO / CUG Average / GUG Average: NUG experiment; for CUG Average: CUG vs AUG reporter; for GUG Average: GUG vs AUG reporter; for NUG (Final data, Fig. 1E): average CUG and GUG relative to DMSO, 20 µM overnight; for GUG vs AUG data (%): individual repeat; for GUG vs AUG (%) Average: summary average of repeats, DMSO control average […]
[3] = summary table, fluorescence binding assay
[4] = compound at 20uM (summary head)

T2 sequence (P47813 whole entry): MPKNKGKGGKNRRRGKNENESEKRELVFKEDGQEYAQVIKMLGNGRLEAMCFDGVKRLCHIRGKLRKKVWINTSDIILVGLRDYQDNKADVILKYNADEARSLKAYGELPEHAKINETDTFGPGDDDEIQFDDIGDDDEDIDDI
T1 sequence (P47813 whole entry, one chain of several): as the sequence (P47813 whole entry) above

Row | SMILES | IC50 (eIF1A-RPS10 interaction) [µM] | Reference vs IRF7 (Final data, Fig. 1E) ([1]; 20 µM) | fluorescence ratio, eIF1A (eIF1A; 1Ai conc. 0.25 uM) | fluorescence ratio, eIF1A (eIF1A; 1Ai conc. 0.5 uM) | fluorescence ratio, eIF1A (eIF1A; 1Ai conc. 1 uM) | fluorescence ratio, eIF1A (eIF1A; 1Ai conc. 2 uM) | fluorescence ratio, eIF1A (eIF1A; 1Ai conc. 4 uM) | fluorescence ratio, eIF1A (eIF1A; 1Ai conc. 8 uM) | fluorescence ratio, eIF1A (eIF1A; 1Ai conc. 16 uM) | fluorescence ratio, eIF1A (eIF1A; 1Ai conc. 32 uM) | fluorescence ratio, eIF1A (eIF1A; 1Ai conc. 64 uM) | fluorescence ratio, eIF1A (eIF1A; 1Ai conc. 256 uM) | GFP reporter ratio nsp1/gfp, avg (NSP1) | GFP reporter ratio nsp1/gfp, rep 1 (NSP1) | ratio (nsp1/gfp) (NSP1) | average CUG and GUG [2] | average CUG and GUG relative to DMSO [2] | CUG Average [2] | GUG Average [2] | NUG (Final data, Fig. 1E) [2] | also measured
1 | CCOC(=O)c1ccsc1NC(=O)CN1C(=O)NC(C)(c2cccc3ccccc23)C1=O (stereo not drawn) [1Ai-1861] | 15 | 1.411 | 1.039 and 0.974 | 1.136 and 0.9941 | 1.143 and 0.9966 | 1.167 and 0.9386 | 1.169 and 0.9347 | 1.065 and 0.8919 | 1.1254 and 0.8973 | 1.149 and 0.9563 | 1.304 and 0.9843 | 1.359 and 0.9897 | 0.5997 | 0.5997 | 0.600 | 6.257 | 1.387 | 9.413 | 3.101 | 1.387 | pIC50 (eIF1A-RPS10 interaction): 4.85; LONG (summary - All), normalized to DMSO ([1]; Long reporter, 20 µM): 0.0542 and 0.33 and 0.67 and 0.24; SHORT (summary - All), normalized to DMSO ([1]; 20 µM): 0.28 and 0.35 and 0.52 and 0.68; average ( long vs short ratio) ([1]; 20 µM): 0.709; pIC50 (eIF1A): 4.15; WT eIF1A IC50 (eIF1A): No binding; IC50 concentration (µM), WT eIF1A (eIF1A; [3]): No binding; gfp signal, mean of duplicate wells (NSP1): 311; nsp1 signal, mean of duplicate wells (NSP1): 186.5; CUG vs AUG (%) [2, 4]: 14.0136%; GUG vs AUG (%) [2, 4]: 2.535%; GUG vs AUG data (%) ([2]; compound at 20uM): 2.64% and 2.15% and 3.17% and 4.44%; GUG vs AUG (%) Average ([2]; compound at 20uM): 3.10%
2 | COc1cccc(Nc2nc(-c3ccc(NC(C)=O)cc3)c(C)s2)c1 [1Ai-1869] | 14 | 1.329 | 0.7968 and 0.7342 | 0.8838 and 0.7405 | 0.8128 and 0.72 | 1.007 and 0.8137 | 0.913 and 0.7844 | 0.7676 and 0.6709 | 0.6554 and 0.584 | 0.5701 and 0.4814 | 0.4848 and 0.4176 | 0.3469 and 0.3333 | 0.4109 | 0.4212 | 0.421 and 0.401 and 0.735 | 3.262 | 0.7232 | 5.139 | 1.3841 | 0.723 | pIC50 (eIF1A-RPS10 interaction): 4.74; LONG (summary - All), normalized to DMSO ([1]; Long reporter, 5 µM): 0.51 and 0.25 and 0.61; SHORT (summary - All), normalized to DMSO ([1]; 5 µM): 0.54 and 0.69 and 0.59; Short: Normalized to average DMSO ([1]; data section, GFP-corrected, 5 µM, per experiment, includes values excluded as outliers): 0.5397 and 0.69 and 0.5937; average ( long vs short ratio) ([1]; 5 µM): 0.752; pIC50 (eIF1A): 4.69; IC50 (eIF1A; summary table, fluorescence binding assay, read-out: IC50 concentration (µM), WT eIF1A): 20.4 µM; GFP reporter ratio nsp1/gfp, rep 2 (NSP1): 0.4006; CUG vs AUG (%) ([2]; compound at 5uM (summary head)): 5.139%; GUG vs AUG (%) ([2]; compound at 5uM (summary head)): 1.3841%; GUG vs AUG data (%) ([2]; compound at 5uM): 2.01% and 1.38%; GUG vs AUG (%) Average ([2]; compound at 5uM): 1.70%
3 | O=C(CSc1nc(-c2ccccc2)cn1-c1ccccc1)NC(=O)Nc1ccccc1 [1Ai-2383] | 23 | 1.265 | 0.9677 and 0.9798 | 0.9803 and 0.9815 | 1.02 and 0.9558 | 1.009 and 0.948 | 0.993 and 0.9579 | 0.9438 and 0.997 | 1.039 and 1.06 | 1.096 and 1.111 | 1.232 and 1.231 | 1.523 and 1.464 | 0.4187 | 0.4187 | 0.419 | 5.372 | 1.191 | 8.595 | 2.149 | 1.191 | LONG (summary - All), normalized to DMSO ([1]; Long reporter, 20 µM): 0.91 and 0.57 and 0.60; SHORT (summary - All), normalized to DMSO ([1]; 20 µM): 0.93 and 0.86 and 0.76; Long: Normalized to average DMSO ([1]; data section, Long reporter, GFP-corrected, 20 µM, per experiment, includes values excluded as outliers): 0.9138 and 0.5713 and 0.6011 and 0.6048; Short: Normalized to average DMSO ([1]; data section, GFP-corrected, 20 µM, per experiment, includes values excluded as outliers): 0.9324 and 0.8573 and 0.5797 and 0.7642; average ( long vs short ratio) ([1]; 20 µM): 0.790; WT eIF1A IC50 (eIF1A): No binding; IC50 concentration (µM), WT eIF1A (eIF1A; [3]): No binding; gfp signal, mean of duplicate wells (NSP1): 2499.5; nsp1 signal, mean of duplicate wells (NSP1): 1046.5; GUG vs AUG data (%) ([2]; compound at 20uM): 2.05% and 2.35% and 1.83% and 2.36%; GUG vs AUG (%) Average ([2]; compound at 20uM): 2.15%

— publication PMC12216609, “Inhibitors of eIF1A-ribosome interaction unveil uORF-dependent regulation of translation initiation and antitumor and antiviral effects” (The EMBO Journal, 2025)
